This note sets out measurements from patent publication US11161850B2, “Fused pyrazine derivatives as A2A / A2B inhibitors” (Incyte Corporation, priority 2018, dated 2021).

SMILES strings stand for the structures. Where two headings read alike, the source gives them in different places.

The target of one assay is Adenosine A2A (Homo sapiens (Human), UniProt P29274). The experiment in a line: A2A Tag-Lite HTRF assay. Type of assay: binding. From the text: Example C. A2A Tag-Lite® HTRF Assay
In general terms: In TR-FRET formats the signal depends on donor and acceptor labels being close together.

For assay [1], the target named is human adenosine A2B receptor (Homo sapiens (Human), UniProt P29275). The experiment in a line: Adenosine A2B Receptor Cyclic AMP GS Assay. It counts as cell-based. Conditions: A2B_cAMP_EC50 (nM), HEK-293 cells expressing human A2B, agonist NECA 12 nM. The method, then:
Example B. Adenosine A2B Receptor Cyclic AMP GS Assay
Stably transfected HEK-293 cells expressing the human adenosine A2B receptor (Perkin Elmer) were maintained in MEM culture medium with 10% FBS and 100 μg/mL Geneticin (Life Technologies). 18 to 24 hours prior to assay, geneticin was removed from culture. The cisbio cAMP-GS Dynamic kit utilizing the FRET (Fluorescence Resonance Energy Transfer) technology was used to measure cAMP accumulation in the cells. Compounds of the present disclosure at an appropriate concentration were mixed with 10000 cells/well in white 96 well half area plates (Perkin Elmer) for 30 min at room temperature gently shaking. Agonist, NECA (R&D Technologies) at 12 nM was added to each well for 60 min at room temperature gently shaking. Detection reagents, d2-labeled cAMP (acceptor) and anti-cAMP cryptate (donor) were added to each well for 60 min at rt gently shaking. Plates were read on Pherastar (BMG Labtech), fluorescence ratio 665/620 was calculated and EC50 determination was performed by fitting the curve of percent of control versus the log of the compound concentration using GraphPad Prism.

Setting [2] is: Tag-Lite Adenosine A2A labeled cells, fluorescent ligand 12.5 nM, read-out: A2A_Ki.

Sequence of Adenosine A2A (P29274 whole entry): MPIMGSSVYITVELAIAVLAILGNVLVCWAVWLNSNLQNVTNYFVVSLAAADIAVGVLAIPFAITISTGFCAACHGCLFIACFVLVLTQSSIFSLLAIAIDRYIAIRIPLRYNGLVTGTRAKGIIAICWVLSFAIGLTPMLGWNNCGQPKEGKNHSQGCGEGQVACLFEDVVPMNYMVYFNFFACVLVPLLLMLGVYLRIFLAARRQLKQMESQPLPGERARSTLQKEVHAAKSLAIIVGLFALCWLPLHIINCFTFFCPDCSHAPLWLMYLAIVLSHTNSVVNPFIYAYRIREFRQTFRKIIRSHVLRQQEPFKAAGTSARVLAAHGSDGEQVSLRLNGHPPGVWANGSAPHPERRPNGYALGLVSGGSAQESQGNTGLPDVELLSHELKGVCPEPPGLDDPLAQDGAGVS
Sequence of human adenosine A2B receptor (P29275 whole entry): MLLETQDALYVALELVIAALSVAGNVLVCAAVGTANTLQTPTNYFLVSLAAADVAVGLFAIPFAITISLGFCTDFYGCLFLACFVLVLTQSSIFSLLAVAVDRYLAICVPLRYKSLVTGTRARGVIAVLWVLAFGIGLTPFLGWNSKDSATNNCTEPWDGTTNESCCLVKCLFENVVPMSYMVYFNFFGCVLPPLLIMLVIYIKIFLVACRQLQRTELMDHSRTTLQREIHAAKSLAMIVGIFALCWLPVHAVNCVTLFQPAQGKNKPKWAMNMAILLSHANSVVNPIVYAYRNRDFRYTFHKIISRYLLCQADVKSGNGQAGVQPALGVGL

`N#Cc1cccc(-c2nc(N)c3cc(Cc4ccccc4F)nn3c2C2=CCN(C(N)=O)CC2)c1` [Example 19, 4-(4-Amino-6-(3-cyanophenyl)-2-(2-fluorobenzyl)pyrazolo[1,5-a]pyrazin-7-yl)-5,6-dihydropyridine-1(2H)-carboxamide]: at Adenosine A2A (setting [2]), the Ki is less than 10 nM. In addition, in assay [1], the 50% effective concentration (EC50) – broadly, the concentration that produces a half-maximal response – fell in the range of 10 to 100 nM.
With `N#Cc1cccc(-c2nc(N)c3cc(Cc4ccccc4F)nn3c2C#N)c1` [Example 20, 4-Amino-6-(3-cyanophenyl)-2-(2-fluorobenzyl)pyrazolo[1,5-a]pyrazine-7-carbonitrile], the Ki at Adenosine A2A (setting [2]) is less than 10 nM. The molecule also gave an EC50 in assay [1] of less than 10 nM.
Regarding `N#Cc1cccc(-c2cn3nc(Cc4ccccc4F)c(C#N)c3c(N)n2)c1` [Example 21, 4-Amino-6-(3-cyanophenyl)-2-(2-fluorobenzyl)pyrazolo[1,5-a]pyrazine-3-carbonitrile], the Ki at Adenosine A2A (setting [2]) was less than 10 nM. In assay [1], the EC50 lay in the range of 100 to 1000 nM.
Turning to `N#Cc1cccc(-c2nc(N)c3cc(C(O)c4ccccc4F)nn3c2Br)c1` (stereo not shown) [Example 22, 3-(4-Amino-7-bromo-2-((2-fluorophenyl)(hydroxy)methyl)pyrazolo[1,5-a]pyrazin-6-yl)benzonitrile], at Adenosine A2A (setting [2]), the Ki was less than 10 nM. The concentration giving a half-maximal response (EC50) in assay [1] was in the range of 100 to 1000 nM.
As for `N#Cc1cccc(-c2nc(N)c3cc(C4=CCOCC4)nn3c2-c2ccncn2)c1` [Example 24, 3-(4-Amino-2-(3,6-dihydro-2H-pyran-4-yl)-7-(pyrimidin-4-yl)pyrazolo[1,5-a]pyrazin-6-yl)benzonitrile], on Adenosine A2A (setting [2]), the Ki was less than 10 nM. Also, the concentration giving a half-maximal response (EC50) in assay [1] fell in the range of 10 to 100 nM.
On to `N#Cc1cccc(-c2nc(N)c3cc(Nc4ccccc4)nn3c2-c2ccncc2)c1` [Example 25, 3-(4-Amino-2-(phenylamino)-7-(pyridin-4-yl)pyrazolo[1,5-a]pyrazin-6-yl)benzonitrile], for which the Ki at Adenosine A2A (setting [2]) was less than 10 nM. This molecule yielded a concentration for a half-maximal effect (EC50) in assay [1] of 10 to 100 nM.
Taken in the same sequence, the figures for `CN1CCN(c2cc(-c3cc4c(N)nc(-c5cccc(C#N)c5)c(-c5ccncc5)n4n3)ccn2)CC1` [Example 26, 3-(4-Amino-2-(2-(4-methylpiperazin-1-yl)pyridin-4-yl)-7-(pyridin-4-yl)pyrazolo[1,5-a]pyrazin-6-yl)benzonitrile] were less than 10 nM and 10 to 100 nM.
For the molecule `N#Cc1cccc(-c2nc(N)c3nc(Cc4ccccn4)nn3c2-c2ccncn2)c1` [Example 27, 3-(8-Amino-2-(pyridin-2-ylmethyl)-5-(pyrimidin-4-yl)-[1,2,4]triazolo[1,5-a]pyrazin-6-yl)benzonitrile], the Ki on Adenosine A2A (setting [2]) was less than 10 nM. In assay [1], this molecule showed a concentration for a half-maximal effect (EC50) of less than 10 nM.
Consider `Cn1cc(-c2c(-c3cccc(C#N)c3)nc(N)c3nc(Cc4ccccn4)nn23)ccc1=O` [Example 28, 3-(8-Amino-5-(1-methyl-6-oxo-1,6-dihydropyridin-3-yl)-2-(pyridin-2-ylmethyl)-[1,2,4]triazolo[1,5-a]pyrazin-6-yl)benzonitrile], for which, at Adenosine A2A (setting [2]), the Ki was less than 10 nM. The molecule also had an EC50 in assay [1] of 10 to 100 nM.
On Adenosine A2A, `Cn1nc(-c2c(-c3cccc(C#N)c3)nc(N)c3nc(Cc4ccccn4)nn23)ccc1=O` [Example 29, 3-(8-Amino-5-(1-methyl-6-oxo-1,6-dihydropyridazin-3-yl)-2-(pyridin-2-ylmethyl)-[1,2,4]triazolo[1,5-a]pyrazin-6-yl)benzonitrile] returned a Ki of less than 10 nM. For the same molecule, the EC50 in assay [1] is less than 10 nM.
For `N#Cc1cccc(-c2nc(N)c3nc(Cc4c(F)cccc4CN4CC[C@H](C(=O)O)C4)nn3c2-c2ccncn2)c1` [Example 30, (S)-1-(2-((8-Amino-6-(3-cyanophenyl)-5-(pyrimidin-4-yl)-[1,2,4]triazolo[1,5-a]pyrazin-2-yl)methyl)-3-fluorobenzyl)pyrrolidine-3-carboxylic Acid], the Ki at Adenosine A2A (setting [2]) is less than 10 nM. In assay [1], this molecule gave a concentration for a half-maximal effect (EC50) of 10 to 100 nM.
Consider `N#Cc1cccc(-c2nc(N)c3nc(Cc4c(F)cccc4CN4CC(C(=O)O)C4)nn3c2-c2ccncn2)c1` [Example 31, 1-(2-((8-Amino-6-(3-cyanophenyl)-5-(pyrimidin-4-yl)-[1,2,4]triazolo[1,5-a]pyrazin-2-yl)methyl)-3-fluorobenzyl)azetidine-3-carboxylic Acid], for which, at Adenosine A2A (setting [2]), the Ki was less than 10 nM. The same molecule came in with a concentration for a half-maximal effect (EC50) in assay [1] of 10 to 100 nM.
Take `N#Cc1cccc(-c2nc(N)c3nc(Cn4ccc5cccnc54)nn3c2-c2ccncn2)c1` [Example 32, 3-(2-((1H-Pyrrolo[2,3-b]pyridin-1-yl)methyl)-8-amino-5-(pyrimidin-4-yl)-[1,2,4]triazolo[1,5-a]pyrazin-6-yl)benzonitrile]: at Adenosine A2A (setting [2]), the Ki is less than 10 nM. The molecule also displayed an EC50 in assay [1] of less than 10 nM.
With `N#Cc1cccc(-c2nc(N)c3nc(Cn4cccc5ccnc4-5)nn3c2-c2ccncn2)c1` [Example 33, 3-(2-((7H-pyrrolo[2,3-b]pyridin-7-yl)methyl)-8-amino-5-(pyrimidin-4-yl)-[1,2,4]triazolo[1,5-a]pyrazin-6-yl)benzonitrile], the Ki at Adenosine A2A (setting [2]) was less than 10 nM. The EC50 in assay [1] was less than 10 nM.
Regarding `Cc1nc(C(C)O)c(-c2c(-c3cccc(C#N)c3)nc(N)c3cc(Cc4ccccn4)nn23)o1` (stereo not shown) [Example 34, 3-(4-Amino-7-(4-(1-hydroxyethyl)-2-methyloxazol-5-yl)-2-(pyridin-2-ylmethyl)pyrazolo[1,5-a]pyrazin-6-yl)benzonitrile], the Ki on Adenosine A2A (setting [2]) was less than 10 nM. This molecule also registered a concentration for a half-maximal effect (EC50) in assay [1] of 10 to 100 nM.
Consider `Cc1nc(C(O)C(F)F)c(-c2c(-c3cccc(C#N)c3)nc(N)c3cc(Cc4ccccn4)nn23)o1` (stereo not shown) [Example 35, 3-(4-Amino-7-(4-(2,2-difluoro-1-hydroxyethyl)-2-methyloxazol-5-yl)-2-(pyridin-2-ylmethyl)pyrazolo[1,5-a]pyrazin-6-yl)benzonitrile], for which the Ki at Adenosine A2A (setting [2]) is less than 10 nM. Moreover, in assay [1], the EC50 was less than 10 nM.
On to `CCn1nncc1-c1c(-c2cccc(C#N)c2)nc(N)c2cc(Cc3ccccn3)nn12` [Example 36, 3-(4-Amino-7-(1-ethyl-1H-1,2,3-triazol-5-yl)-2-(pyridin-2-ylmethyl)pyrazolo[1,5-a]pyrazin-6-yl)benzonitrile], for which the Ki on Adenosine A2A (setting [2]) is less than 10 nM. For the same molecule, the EC50 in assay [1] is less than 10 nM.
As to `Cn1nncc1-c1c(-c2cccc(C#N)c2)nc(N)c2cc(Cc3ccccn3)nn12` [Example 37, 3-(4-Amino-7-(1-methyl-1H-1,2,3-triazol-5-yl)-2-(pyridin-2-ylmethyl)pyrazolo[1,5-a]pyrazin-6-yl)benzonitrile], at Adenosine A2A (setting [2]), the Ki is less than 10 nM. The molecule further yielded an EC50 in assay [1] of less than 10 nM.
For the molecule `N#Cc1cccc(-c2nc(N)c3cc(C(O)c4ccccc4F)nn3c2-c2ccncn2)c1` (stereo not shown) [Example 38, 3-(4-Amino-2-((2-fluorophenyl)(hydroxy)methyl)-7-(pyrimidin-4-yl)pyrazolo[1,5-a]pyrazin-6-yl)benzonitrile], the Ki on Adenosine A2A (setting [2]) was less than 10 nM. Further, the EC50 in assay [1] is less than 10 nM.
Regarding `N#Cc1cccc(-c2nc(N)c3nc(Oc4ccccc4F)nn3c2-c2ccncn2)c1` [Example 39, 3-(8-Amino-2-(2-fluorophenoxy)-5-(pyrimidin-4-yl)-[1,2,4]triazolo[1,5-a]pyrazin-6-yl)benzonitrile], the Ki at Adenosine A2A (setting [2]) is less than 10 nM. This molecule returned a half-maximal effective concentration (EC50) in assay [1] of less than 10 nM.
For `Cn1cc(-c2ccccc2Cc2nc3c(N)nc(-c4cccc(C#N)c4)c(-c4ccncn4)n3n2)cn1` [Example 41, 3-(8-Amino-2-(2-(1-methyl-1H-pyrazol-4-yl)benzyl)-5-(pyrimidin-4-yl)-[1,2,4]triazolo[1,5-a]pyrazin-6-yl)benzonitrile], on Adenosine A2A (setting [2]), the Ki was less than 10 nM. Further, the EC50 in assay [1] is less than 10 nM.
As for `Cc1ncoc1-c1c(-c2cccc(C#N)c2)nc(N)c2nc(Cc3ccccn3)nn12` [Example 42, 3-(8-Amino-5-(4-methyloxazol-5-yl)-2-(pyridin-2-ylmethyl)-[1,2,4]triazolo[1,5-a]pyrazin-6-yl)benzonitrile], at Adenosine A2A (setting [2]), the Ki is less than 10 nM. Moreover, the half-maximal effective concentration (EC50) in assay [1] is less than 10 nM.
With `CCc1ncoc1-c1c(-c2cccc(C#N)c2)nc(N)c2nc(Cc3ccccn3)nn12` [Example 43, 3-(8-Amino-5-(4-ethyloxazol-5-yl)-2-(pyridin-2-ylmethyl)-[1,2,4]triazolo[1,5-a]pyrazin-6-yl)benzonitrile], at Adenosine A2A (setting [2]), the Ki is less than 10 nM. This molecule returned a concentration giving a half-maximal response (EC50) in assay [1] of less than 10 nM.
On to `Cc1cnccc1-c1c(-c2cccc(C#N)c2)nc(N)c2nc(Cc3ccccn3)nn12` [Example 44, 3-(8-Amino-5-(3-methylpyridin-4-yl)-2-(pyridin-2-ylmethyl)-[1,2,4]triazolo[1,5-a]pyrazin-6-yl)benzonitrile], for which, at Adenosine A2A (setting [2]), the Ki is less than 10 nM. The same molecule showed an EC50 in assay [1] of less than 10 nM.
In the case of `N#Cc1cccc(-c2nc(N)c3nc(Cc4cccn5ccnc45)nn3c2-c2ccncn2)c1` [Example 45, 3-(8-Amino-2-(imidazo[1,2-a]pyridin-8-ylmethyl)-5-(pyrimidin-4-yl)-[1,2,4]triazolo[1,5-a]pyrazin-6-yl)benzonitrile], the Ki on Adenosine A2A (setting [2]) is less than 10 nM. The EC50 in assay [1] is less than 10 nM.
Regarding `N#Cc1cccc(-c2nc(N)c3nc(Cc4cccc5ccnn45)nn3c2-c2ccncn2)c1` [Example 46, 3-(8-Amino-2-(pyrazolo[1,5-a]pyridin-7-ylmethyl)-5-(pyrimidin-4-yl)-[1,2,4]triazolo[1,5-a]pyrazin-6-yl)benzonitrile], on Adenosine A2A (setting [2]), the Ki is less than 10 nM. Besides, in assay [1], the EC50 is less than 10 nM.
